Measured values published in publication PMC11350868, “A Novel Bacitracin-like Peptide from Mangrove-Isolated Bacillus paralicheniformis NNS4-3 against MRSA and Its Genomic Insights” (Antibiotics, 2024).
Converted amounts (≈) assume the structure as drawn. “And” between values parts separate entries of the source, which are not always exact repeats. Identical values can stand only once. Like-named read-outs stand apart in the source and are kept apart here.

How the values were obtained:
Trypsin = Trypsin 1 mg/mL, AMP 10 µg/mL, agar well diffusion vs MRSA strain 2468, relative to non-treated sample, mean ± SD, triplicate
Protocol: (§3) The AMP was dissolved in sterile purified water and adjusted to a final concentration of 10 µg/mL. The sensitivity of the AMP to temperatures of 60, 80, and 100 °C as well as autoclaving at 121 °C for 15 and 30 min was evaluated. The sensitivity of the AMP to proteolytic enzymes with different digesting characteristics was studied by incubating with a concentration of 1 mg/mL of proteinase K, trypsin, and α-chymotrypsin (Sigma-Aldrich, Warren, MI, USA). Surfactant compatibility of the AMP was examined by exposing the sample to 1% SDS and 1% Triton X-100 (AppliChem GmbH, Darmstadt, Germany). The propensity of the AMP for acid and base hydrolysis was examined by adjusting the pH of the solution to 1.2, 4.5, 6.8, and 7.4. After incubation, the pH of the AMP solution was neutralized to 7.4 before being assessed for antimicrobial activity. Following all treatments, the antibacterial assay using agar well diffusion against the MRSA strain 2468 was conducted in triplicate. The stability profiles are presented as the percentage of the activity relative to the untreated conditions (mean ± SD) and statistical significance was determined by the Student’s t-test at a p-value < 0.05.

MRSA strain 2468 [1] = test: Time-kill kinetics; assay type: cell-based, Staphylococcus aureus; details: 4× MIC; CAMHB, 37 °C
Protocol: S. aureus TISTR 517 and MRSA strain 2468 were adjusted to a cell density of 5 × 10^5 CFU/mL with CAMHB for the initial treatment. […] The reactions were conducted at 37 °C, followed by spreading the total volume onto MH agar at specific time intervals (0–24 h). Subsequently, the spread plates were incubated at 37 °C for 24 h before counting the colonies. The bacterial reduction trends were presented with a log10 scale of viable cells (logCFU/mL) versus treatment duration. The bacterial cell reduction was determined within 24 h. Each experiment was conducted in triplicate on the 96-well plates. The presence of significant differences (p-value < 0.05) was assessed by two-way ANOVA, followed by the post hoc Tukey’s test for conducting multiple comparisons between treated and non-treated samples at each time interval.

[2] = Surfactant stability (residual antibacterial activity); assay type: physicochemical; details: AMP 10 µg/mL, agar well diffusion vs MRSA strain 2468, relative to non-treated sample, mean ± SD, triplicate
Protocol: as §3

[3] = Effect of pH on the stability (residual antibacterial activity); assay type: physicochemical; details: AMP 10 µg/mL, mean ± SD, triplicate
Protocol: as §3

[4] = Thermal stability (residual antibacterial activity); assay type: physicochemical; details: AMP 10 µg/mL in purified water, agar well diffusion vs MRSA strain 2468, relative to non-treated sample, mean ± SD, triplicate
Protocol: as §3

MRSA strain 2468 [5] = test: microbe, parasite or virus in culture; assay type: cell-based, Staphylococcus aureus; details: strain 2468, 24 h
Protocol: (§1) The MIC and MBC of the purified peptide of NNS4-3 were determined against various strains of S. aureus. The broth microdilution method followed the guidance provided by the Clinical and Laboratory Standards Institute (CLSI). Pathogenic bacteria, such as S. aureus TISTR 517 and MRSA strains 142, 1096, and 2468, were used as test strains and cultured on MH agar at 37 °C for 18 h. A single colony of each tested bacterium was suspended in 0.85% NaCl until its turbidity reached an OD of 0.1 at 625 nm (1 × 10^8 CFU/mL). The bacterial cells were diluted to 5 × 10^6 CFU/mL using cation-adjusted Mueller Hinton broth (CAMHB). The diluted cell suspension (10 µL) was transferred to each well of a 96-well plate. With a total volume of 100 µL in each well, the purified AMP was added to each well to obtain final concentrations between 0.125 and 64 µg/mL. Standard antibiotics (vancomycin and cefoxitin) and antibiotic-free samples were used as positive and negative controls, respectively. The 96-well plate was incubated at 37 °C for 24 h. The experiment was carried out in triplicate for each strain. […] Subsequently, 100 µL of each dilution was spread on MH agar and then incubated at 37 °C for 24 h. The MBC was identified as the lowest concentration at which no bacterial colony growth was observed on the plate.

S. aureus TISTR 517 [6] = test: microbe, parasite or virus in culture; assay type: cell-based, Staphylococcus aureus; details: TISTR 517, 24 h
Protocol: as §1

MRSA strain 142 = test: microbe, parasite or virus in culture; assay type: cell-based, Staphylococcus aureus; details: strain 142, 24 h
Protocol: as §1

MRSA strain 1096 = test: microbe, parasite or virus in culture; assay type: cell-based, Staphylococcus aureus; details: strain 1096, 24 h
Protocol: as §1

MRSA strain 2468 [7] = test: SEM of treated cells (morphological changes); assay type: cell-based, Staphylococcus aureus; details: 1× MIC, 18 h incubation, 20,000× magnification
Protocol: (§2) The treatment effect of NNS4-3 AMP on tested bacterial cells was investigated by observing morphological changes under SEM. S. aureus TISTR 517 and MRSA strain 2468 were precultured in MH broth for 18 h before being centrifuged to harvest the cell pellet. Cell pellets of both strains were washed with 0.85% sterile NaCl solution 3 times to remove exopolysaccharide. The washed cells were then dispersed in CAMHB to adjust cell turbidity to 0.1 OD at 625 nm. The prepared cells were diluted to 5 × 10^5 CFU/mL with CAMHB before being treated with NNS4-3 AMP. […] The sample for SEM micrography was prepared by fixing the bacterial sample in 2.5% glutaraldehyde in 0.1 M phosphate buffer pH 7.2 for 24 h before ethanol dehydration of the sample. The complete ethanol removal from the prepared sample was conducted by a critical point drying machine (Quorum Technologies Ltd., Lewes, East Sussex, UK).

S. aureus TISTR 517 [8] = test: SEM of treated cells (morphological changes); assay type: cell-based, Staphylococcus aureus; details: 1× MIC, 18 h incubation, 20,000× magnification
Protocol: as §2

Proteinase K = target: T1, Proteinase K (Parengyodontium album, UniProt P06873); test: Proteolytic enzyme stability (residual antibacterial activity); assay type: in vitro ADME; details: Proteinase K 1 mg/mL, AMP 10 µg/mL, agar well diffusion vs MRSA strain 2468, relative to non-treated sample, mean ± SD, triplicate
T1 construct: purchased Sigma-Aldrich
T1 sequence (P06873 106-384): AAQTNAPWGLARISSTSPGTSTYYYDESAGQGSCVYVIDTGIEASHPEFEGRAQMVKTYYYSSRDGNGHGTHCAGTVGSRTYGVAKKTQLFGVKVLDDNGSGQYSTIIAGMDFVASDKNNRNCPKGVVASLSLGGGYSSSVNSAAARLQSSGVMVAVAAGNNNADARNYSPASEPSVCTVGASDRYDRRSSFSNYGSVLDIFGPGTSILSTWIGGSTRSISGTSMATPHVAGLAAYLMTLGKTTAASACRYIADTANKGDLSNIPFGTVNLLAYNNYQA
Protocol: as §3

CC(C)CC(NC(=O)C(N)CCCCN)C(=O)NC(CC(C)C)C(=O)NC(CCCCN)C(=O)NC(CC(=O)O)C(=O)NC(CC(C)C)C(=O)NC(Cc1ccccc1)C(=O)NC(Cc1c[nH]cn1)C(=O)NC(CC(=O)O)C(=O)NC(CC(N)=O)C(=O)O (single isomer, unassigned) [NNS4-3 AMP]
% Residual Activity (Trypsin; 1 h): 95.57 ± 4.01%
% Residual Activity (Trypsin; 6 h): 95.66 ± 2.62%
% Residual Activity (Trypsin; 12 h): 93.81 ± 3.31%
time of treatment to complete elimination of viable cells (MRSA strain 2468 [1]): ≤ 8 h
% Residual Activity ([2]; 1% SDS, 1 h): 87.00 ± 6.17 %
% Residual Activity ([2]; 1% SDS, 6 h): 86.69 ± 5.39 %
% Residual Activity ([2]; 1% SDS, 12 h): 86.25 ± 4.76 %
% Residual Activity ([2]; 1% Triton X-100, 1 h): 104.54 ± 4.96%
% Residual Activity ([2]; 1% Triton X-100, 12 h): 103.40 ± 3.82%
% Residual Activity ([3]; pH 1.2, 1 h, neutralized to pH 7.4 before agar well diffusion vs MRSA strain 2468, relative to non-treated sample): 98.12 ± 2.14%
% Residual Activity ([3]; pH 1.2, 6 h, neutralized to pH 7.4 before agar well diffusion vs MRSA strain 2468, relative to non-treated sample): 95.45 ± 0.79%
% Residual Activity ([3]; pH 1.2, 12 h, neutralized to pH 7.4 before agar well diffusion vs MRSA strain 2468, relative to non-treated sample): 94.14 ± 3.12%
% Residual Activity ([3]; pH 4.5, 1 h, neutralized to pH 7.4 before agar well diffusion vs MRSA strain 2468, relative to non-treated sample): 95.24 ± 3.29%
% Residual Activity ([3]; pH 4.5, 6 h, neutralized to pH 7.4 before agar well diffusion vs MRSA strain 2468, relative to non-treated sample): 99.64 ± 2.87%
% Residual Activity ([3]; pH 4.5, 12 h, neutralized to pH 7.4 before agar well diffusion vs MRSA strain 2468, relative to non-treated sample): 96.91 ± 2.99%
% Residual Activity ([3]; pH 6.8, 1 h, neutralized to pH 7.4 before agar well diffusion vs MRSA strain 2468, relative to non-treated sample): 98.87 ± 2.00%
% Residual Activity ([3]; pH 6.8, 6 h, neutralized to pH 7.4 before agar well diffusion vs MRSA strain 2468, relative to non-treated sample): 95.89 ± 5.00%
% Residual Activity ([3]; pH 6.8, 12 h, neutralized to pH 7.4 before agar well diffusion vs MRSA strain 2468, relative to non-treated sample): 92.54 ± 4.14%
% Residual Activity ([3]; pH 7.4, 1 h, agar well diffusion vs MRSA strain 2468, relative to non-treated sample): 97.80 ± 1.32%
% Residual Activity ([3]; pH 7.4, 6 h, agar well diffusion vs MRSA strain 2468, relative to non-treated sample): 94.82 ± 2.80%
% Residual Activity ([3]; pH 7.4, 12 h, agar well diffusion vs MRSA strain 2468, relative to non-treated sample): 93.29 ± 1.89%
% Residual Activity ([4]; 37 °C, 1 h): 103.19 ± 3.68%
% Residual Activity ([4]; 37 °C, 6 h): 100.00 ± 0.00%
% Residual Activity ([4]; 37 °C, 12 h): 99.61 ± 6.44%
% Residual Activity ([4]; 60 °C, 1 h): 101.82 ± 2.46%
% Residual Activity ([4]; 60 °C, 6 h): 95.27 ± 4.31%
% Residual Activity ([4]; 60 °C, 12 h): 90.47 ± 2.98 %
% Residual Activity ([4]; 80 °C, 1 h): 97.52 ± 6.21%
% Residual Activity ([4]; 80 °C, 6 h): 41.13 ± 35.62 %
% Residual Activity ([4]; 100 °C, 1 h): 73.05 ± 1.57 %
% Residual Activity ([4]; 100 °C, 6 h): 0.00 ± 0.00 %
% Residual Activity ([4]; 100 °C, 12 h): 0.00 ± 0.00 %
% Residual Activity ([4]; autoclaving 121 °C, 15 psi, 15 min): 61% and 61.83 ± 0.74 %
% Residual Activity ([4]; autoclaving 121 °C, 15 psi, 30 min): 0.00 ± 0.00 %
MBC (MRSA strain 2468 [5]): 4 µg/mL (≈ 3.22 µM)
MIC (MRSA strain 2468 [5]): 1 µg/mL (≈ 0.805 µM)
MBC (S. aureus TISTR 517 [6]): 64 µg/mL (≈ 51.5 µM)
MIC (S. aureus TISTR 517 [6]): 16 µg/mL (≈ 12.9 µM)
MBC (MRSA strain 142): 4 µg/mL (≈ 3.22 µM)
MIC (MRSA strain 142): 1 µg/mL (≈ 0.805 µM)
MBC (MRSA strain 1096): 4 µg/mL (≈ 3.22 µM)
MIC (MRSA strain 1096): 1 µg/mL (≈ 0.805 µM)
morphological changes under SEM (MRSA strain 2468 [7]): membrane disruption and pore formation
morphological changes under SEM (S. aureus TISTR 517 [8]): cellular lysis
% Residual Activity (Proteinase K; 1 h): 98.66 ± 1.68%
% Residual Activity (Proteinase K; 6 h): 99.19 ± 1.07%
% Residual Activity (Proteinase K; 12 h): 99.07 ± 3.08%
